Reference: US20220267719A1, “METHOD FOR LOADING OF MICROORGANISMS ON MULTIPHASE BIOMATERIALS” (priority 2019, published 2022)

Legend:
[1] = system: S. aureus; assay: Agar diffusion test with loaded BNC fleeces; assay type: cell-based, Staphylococcus aureus
Method: The evaluation of the antibacterial activity of B. subtilis and B. megaterium loaded-BNC against gram-positive S. aureus was determined by an agar diffusion test. Therefore, the bacterial suspensions of B. subtilis and S. aureus were prepared in TSB broth medium as described before. […] 3 BNC fleeces were loaded using B. subtilis suspension in TSB medium, and 3 BNC fleeces were loaded using B. subtilis suspension in saline. Further 3 BNC fleeces were loaded using the B. subtilis free-supernatant, 3 BNC fleeces were loaded with gentamycin as positive control, and 3 BNC fleeces with isotonic saline as negative control. The OD600 of S. aureus was adjusted to 0.5 McFarland using sterilized saline NaCl 0.9% and the optical density spectrophotometer (Biophotometer) was determined. 20 μl of S. aureus was spread on the surface of Mueller-Hinton agar plate by a sterilized glass spreader. The last control and loaded BNC fleeces were added onto surface of the Mueller Hinton agar: 1. Negative control: saline-loaded BNC 2. Positive control: gentamicin-loaded BNC 3. B. subtilis-loaded BNC in TSB medium 4. B. subtilis-loaded BNC in saline 5. B. subtilis-free supernatant-loaded BNC.

[2] = system: S. aureus; assay: Agar well diffusion test without BNC; assay type: cell-based, Staphylococcus aureus
Method: For the agar diffusion test the OD600 of B. megaterium and B. subtilis was adjusted to 0.1 McFarland using sterilized saline NaCl 0.9%. The OD600 of S. aureus was adjusted to 0.5 McFarland using sterilized saline NaCl 0.9%. 20 μl of S. aureus was spread on the surface of Mueller-Hinton agar plate by a sterilized glass spreader. The wells are […] on the agar plate using the back side of a 1 ml pipette tip. A small volume of Mueller-Hinton agar was melted in boiling water bath, then 100 μl of it was used to close the bottom of each created well. After solidification of the agar in the bottom of the wells, the wells were filled with 100 μl of: Negative control, sterilized saline NaCl 0.9%, Positive control, gentamicin 300 μg/ml, B. megaterium or B. subtilis-free supernatant, B. megaterium or B. subtilis suspension.

gentamicin [Gentamycin]
inhibition effect on S. aureus by diffusion test, on BNC - injection technique ([1]; loaded on BNC by injection): + (by detection of inhibition zone > 2 mm)
inhibition effect on S. aureus by diffusion test, on BNC - spray technique ([1]; loaded on BNC by spray): + (by detection of inhibition zone > 2 mm)
inhibition effect on S. aureus by diffusion test, on BNC - vortex technique ([1]; loaded on BNC by vortex): + (by detection of inhibition zone > 2 mm)
inhibition effect on S. aureus by diffusion test, Without BNC [2]: + (by detection of inhibition zone > 2 mm)
